Source: patent US20250163057A1, “DCN-1 MODULATING COMPOUNDS AND METHODS OF USE THEREOF” (Cellarity, Inc., priority 2023, published 2025)
Like-named read-outs stand apart in the source and are kept apart here.

Legend:
[1] = tested on: Cullin-3 (CUL3) neddylation; assay: AlphaLISA assay for Cullin-3 (CUL3) neddylation in TF 1 cells; assay type: cell-based; details: Homo sapiens, TF-1, 3 h, 3 hours treatment
How it was run: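 TF 1 cells in unsupplemented IMDM treated with compound concentrations for 3 h, then lysed. CUL3 neddylation detected by AlphaLISA (biotinylated anti-NEDD8, anti-CUL3 acceptor beads overnight, streptavidin donor beads 1 h); normalized to vehicle (0%) and 1 μM DI-1548 (100%), IC50 from Hill fits.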

[2] = biological target: DCN1 (DCUND1) protein PONY domain (Homo sapiens (Human), UniProt Q96GG9); assay: TR-FRET assay, DCN1 binding with FAM-labeled probe
How it was run: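 First, the E. coli-derived PONY domain was biotinylated and paired with streptavidin Tb cryptate. Compounds in 0.1% DMSO were then added to DCN1 and FAM-probe (5 nM/20 nM, or 0.31 nM/900 nM total with 800 nM unlabelled) in TritonX, 200 mM NaCl buffer. Finally, TR-FRET ratios were recorded at 1, 5 and 24 hrs.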

DCN1 protein = DCN1 protein (Homo sapiens (Human), UniProt Q96GG9); assay: Intact Protein MS Analysis with the RapidFire-TOF System (covalent adduct formation); assay type: binding; details: MS Emax; 400 nM DCN1, 3 hours at room temperature
How it was run: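 Tag-cleaved human DCN1 (400 nM) expressed in E. coli, in 25 mM Tris-HCl, 200 mM NaCl, 1 mM DTT, was incubated with 11 compound concentrations for 3 h at room temperature and quenched with 0.2% formic acid. Intact-protein Q-TOF MS with deconvolution detected the compound adduct mass.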

[3] = 24 hr after treatment with compound, read-out: TR FRET IC50 24 hr
[4] = read-out: TR FRET IC50 1 hr, 1 hr after treatment with compound
[5] = TR FRET IC50 1 hr (nM), 1 hr after treatment with compound

Sequence of DCN1 (DCUND1) protein PONY domain (Q96GG9 60-248): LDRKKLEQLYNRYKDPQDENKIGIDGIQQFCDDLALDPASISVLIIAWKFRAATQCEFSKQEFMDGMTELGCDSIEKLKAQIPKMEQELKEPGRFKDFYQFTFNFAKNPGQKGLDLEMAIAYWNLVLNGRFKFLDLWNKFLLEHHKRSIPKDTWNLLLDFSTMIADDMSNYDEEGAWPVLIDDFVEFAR
Sequence of DCN1 protein (Q96GG9 whole entry): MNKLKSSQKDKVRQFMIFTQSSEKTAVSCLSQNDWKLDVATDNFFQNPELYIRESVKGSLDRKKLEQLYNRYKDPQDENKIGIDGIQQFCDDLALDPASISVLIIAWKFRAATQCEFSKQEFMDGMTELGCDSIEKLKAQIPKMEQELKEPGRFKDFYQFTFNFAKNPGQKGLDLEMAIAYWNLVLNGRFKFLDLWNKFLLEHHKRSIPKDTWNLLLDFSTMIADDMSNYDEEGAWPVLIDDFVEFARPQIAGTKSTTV

Row | SMILES | IC50 [1] [µM] | IC50 [2, 3] [nM] | IC50 [2, 4] [nM] | % Adduct Formation (DCN1 protein) | IC50 [2, 5] [nM]
1 | CCN1C(=O)[C@@H](NC(=O)c2cccc(C(F)(F)F)c2)[C@@H](c2ccc(F)cc2)c2c(C(=O)N3CCNC[C@@H]3C#N)nn(-c3ccccc3)c21 [Compound I-280] | ≤ 0.1 | ≤ 200 | ≤ 200 | +++ (MS Emax % adduct formation greater than 80.0 and less than or equal to 100.0) | –
2 | CCN1C(=O)[C@@H](NC(=O)c2cccc(C(F)(F)F)c2)[C@H](c2ccc(F)cc2)c2c(CC(=O)NCC#N)nn(-c3ccccc3)c21 [Compound I-298, N-((4R,5S)-3-(2-((cyanomethyl)amino)-2-oxoethyl)-7-ethyl-4-(4-fluorophenyl)-6-oxo-1-phenyl-4,5,6,7-tetrahydro-1H-pyrazolo[3,4-b]pyridin-5-yl)-3-(trifluoromethyl)benzamide] | 0.1 to 1 | 200 to 1000 | – | + (MS Emax % adduct formation greater than or equal to 0.0 and less than or equal to 30.0) | 200 to 1000
3 | CCN1C(=O)[C@@H](NC(=O)c2cccc(C(F)(F)F)c2)[C@H](c2ccc(F)cc2)c2c(CNC(=O)CC#N)nn(-c3ccccc3)c21 [Compound I-299] | 0.1 to 1 | 200 to 1000 | ≤ 200 | + (MS Emax % adduct formation greater than or equal to 0.0 and less than or equal to 30.0) | –
4 | CCN1C(=O)[C@@H](NC(=O)c2cccc(C(F)(F)F)c2)[C@@H](c2ccc(F)cc2)c2c(C(=O)N(CC#N)CC#N)nn(-c3ccccc3)c21 [Compound I-302] | ≤ 0.1 | ≤ 200 | ≤ 200 | +++ (MS Emax % adduct formation greater than 80.0 and less than or equal to 100.0) | –
5 | CCN1C(=O)[C@@H](NC(=O)c2cccc(C(F)(F)F)c2)C(c2ccc(F)cc2)c2c(C(=O)N(C)C(C)C#N)nn(C3CCOCC3)c21 (stereo partly drawn) [Compound I-305] | ≤ 0.1 | ≤ 200 | ≤ 200 | +++ (MS Emax % adduct formation greater than 80.0 and less than or equal to 100.0) | –
6 | CCN1C(=O)[C@@H](NC(=O)c2cccc(C(F)(F)F)c2)[C@@H](c2ccc(C)cc2)c2c(C(=O)N(C)C(C)C#N)nn(C3CC3)c21 (stereo partly drawn) [Compound I-306] | ≤ 0.1 | ≤ 200 | ≤ 200 | ++ (MS Emax % adduct formation greater than 30.0 and less than or equal to 80.0) | –
7 | CCCn1nc(C(=O)N(C)C(C)C#N)c2c1N(CC)C(=O)[C@@H](NC(=O)c1cccc(C(F)(F)F)c1)[C@H]2c1ccc(F)cc1 (stereo partly drawn) [Compound I-307] | ≤ 0.1 | ≤ 200 | ≤ 200 | +++ (MS Emax % adduct formation greater than 80.0 and less than or equal to 100.0) | –
8 | CCN1C(=O)[C@@H](NC(=O)c2cccc(C(F)(F)F)c2)[C@@H](c2ccc(F)cc2)c2c(C(=O)N(C)[C@H](C#N)CCN3CCOCC3)nn(-c3ccccc3)c21 [Compound I-308] | ≤ 0.1 | ≤ 200 | ≤ 200 | +++ (MS Emax % adduct formation greater than 80.0 and less than or equal to 100.0) | –
9 | CCN1C(=O)[C@@H](NC(=O)c2cccc(C(F)(F)F)c2)[C@@H](c2ccc(F)cc2)c2c(C(=O)N(C)[C@@H](C#N)CCN3CCOCC3)nn(-c3ccccc3)c21 [Compound I-309] | ≤ 0.1 | ≤ 200 | ≤ 200 | + (MS Emax % adduct formation greater than or equal to 0.0 and less than or equal to 30.0) | –
10 | CCN1C(=O)[C@@H](NC(=O)c2cccc(C(F)(F)F)c2)[C@@H](c2ccc(F)cc2)c2c(C(=O)N(C)[C@H](C#N)CCN(C)C3COC3)nn(-c3ccccc3)c21 [Compound I-310] | ≤ 0.1 | ≤ 200 | ≤ 200 | +++ (MS Emax % adduct formation greater than 80.0 and less than or equal to 100.0) | –
11 | CCN1C(=O)[C@@H](NC(=O)c2cccc(C(F)(F)F)c2)[C@@H](c2ccc(F)cc2)c2c(C(=O)N(C)[C@H](C#N)CCN3CC4CC(C3)O4)nn(-c3ccccc3)c21 [Compound I-312] | ≤ 0.1 | ≤ 200 | ≤ 200 | +++ (MS Emax % adduct formation greater than 80.0 and less than or equal to 100.0) | –
12 | CCN1C(=O)[C@@H](NC(=O)c2cccc(C(F)(F)F)c2)[C@@H](c2ccc(F)cc2)c2c(C(=O)N(C)[C@@H](C#N)CCN3CC4CC(C3)O4)nn(-c3ccccc3)c21 [Compound I-313] | ≤ 0.1 | ≤ 200 | ≤ 200 | ++ (MS Emax % adduct formation greater than 30.0 and less than or equal to 80.0) | –
13 | CCN1C(=O)[C@@H](NC(=O)c2cccc(C(F)(F)F)c2)[C@@H](c2ccc(F)cc2)c2c(C(=O)N(C)[C@H](C#N)CCN3CCC34COC4)nn(-c3ccccc3)c21 [Compound I-314] | ≤ 0.1 | ≤ 200 | ≤ 200 | +++ (MS Emax % adduct formation greater than 80.0 and less than or equal to 100.0) | –
14 | CCN1C(=O)[C@@H](NC(=O)c2cccc(C(F)(F)F)c2)[C@@H](c2ccc(F)cc2)c2c(C(=O)N(C)[C@@H](C#N)CCN3CCC34COC4)nn(-c3ccccc3)c21 [Compound I-315] | ≤ 0.1 | ≤ 200 | ≤ 200 | +++ (MS Emax % adduct formation greater than 80.0 and less than or equal to 100.0) | –
15 | CCN1C(=O)[C@@H](NC(=O)c2cccc(C(F)(F)F)c2)[C@@H](c2ccc(F)cc2)c2c(C(=O)N(C)[C@H](C#N)CCN3CCN(C4COC4)CC3)nn(-c3ccccc3)c21 [Compound I-316] | ≤ 0.1 | ≤ 200 | ≤ 200 | +++ (MS Emax % adduct formation greater than 80.0 and less than or equal to 100.0) | –
16 | CCN1C(=O)[C@@H](NC(=O)c2cccc(C(F)(F)F)c2)[C@@H](c2ccc(F)cc2)c2c(C(=O)N(C)[C@@H](C#N)CCN3CCN(C4COC4)CC3)nn(-c3ccccc3)c21 [Compound I-317] | ≤ 0.1 | ≤ 200 | ≤ 200 | +++ (MS Emax % adduct formation greater than 80.0 and less than or equal to 100.0) | –
17 | CCN1C(=O)[C@@H](NC(=O)c2cccc(C(F)(F)F)c2)[C@@H](c2ccc(F)cc2)c2c(C(=O)N(C)[C@H](C#N)CCN3CC4CCC(C3)O4)nn(-c3ccccc3)c21 [Compound I-318] | ≤ 0.1 | ≤ 200 | – | +++ (MS Emax % adduct formation greater than 80.0 and less than or equal to 100.0) | 1000 to 3000
18 | CCN1C(=O)[C@@H](NC(=O)c2cccc(C(F)(F)F)c2)[C@@H](c2ccc(F)cc2)c2c(C(=O)N(CC#N)CCN3CCN(C4COC4)CC3)nn(-c3ccccc3)c21 [Compound I-323] | ≤ 0.1 | ≤ 200 | ≤ 200 | +++ (MS Emax % adduct formation greater than 80.0 and less than or equal to 100.0) | –
19 | CCN1C(=O)[C@@H](NC(=O)c2cccc(C(F)(F)F)c2)[C@@H](c2ccc(F)cc2)c2c(C(=O)N3CCS(=O)(=O)CC3C#N)nn(-c3ccccc3)c21 (stereo partly drawn) [Compound I-325] | ≤ 0.1 | ≤ 200 | ≤ 200 | +++ (MS Emax % adduct formation greater than 80.0 and less than or equal to 100.0) | –
20 | CCN1C(=O)[C@@H](NC(=O)c2cccc(C(F)(F)F)c2)[C@@H](C2CC2)c2c(C(=O)N3[C@H](C#N)C[C@H]4C[C@H]43)nn(-c3ccccc3)c21 [Compound I-326] | ≤ 0.1 | ≤ 200 | ≤ 200 | +++ (MS Emax % adduct formation greater than 80.0 and less than or equal to 100.0) | –
21 | CCN1C(=O)[C@@H](NC(=O)c2cccc(C(F)(F)F)c2)[C@@H](C2CC2)c2c(C(=O)N3[C@H](C#N)C[C@H]4C[C@H]43)nn(C3CC3)c21 [Compound I-327] | ≤ 0.1 | ≤ 200 | ≤ 200 | +++ (MS Emax % adduct formation greater than 80.0 and less than or equal to 100.0) | –
22 | CCCn1nc(C(=O)N2[C@H](C#N)C[C@H]3C[C@H]32)c2c1N(CC)C(=O)[C@@H](NC(=O)c1cccc(C(F)(F)F)c1)[C@H]2C1CC1 [Compound I-328] | ≤ 0.1 | ≤ 200 | ≤ 200 | +++ (MS Emax % adduct formation greater than 80.0 and less than or equal to 100.0) | –
23 | CCN1C(=O)[C@@H](NC(=O)c2cccc(C(F)(F)F)c2)[C@@H](c2ccc(F)cc2)c2c(C(=O)N3[C@H](C#N)C[C@H]4C[C@H]43)nn(C3CCOCC3)c21 [Compound I-329] | ≤ 0.1 | ≤ 200 | ≤ 200 | +++ (MS Emax % adduct formation greater than 80.0 and less than or equal to 100.0) | –
24 | CCN1C(=O)[C@@H](NC(=O)c2cccc(C(F)(F)F)c2)[C@@H](c2ccc(F)cc2)c2c(C(=O)N3[C@H](C#N)C[C@H]4C[C@H]43)nn(C3CC3)c21 [Compound I-330] | ≤ 0.1 | ≤ 200 | ≤ 200 | +++ (MS Emax % adduct formation greater than 80.0 and less than or equal to 100.0) | –
